Like-named read-outs stand apart in the source and are kept apart here.
How the values were obtained:
[1] = tested on: PC3 prostate cancer cells; settings: PC3 xenograft
Method: (§1) Human cell lines (A549 lung carcinoma, PC3 and DU145 prostatic carcinoma, and potentially others) were used. Mice received XRT (whole body radiation) up to 2 days prior to inoculation to minimize tumor regression due to residual immunological systems. The animal was administered a sub-lethal dose of whole body radiation of up to 4.5 Gy. The published literature indicates the LD50/30 dose for whole body radiation in the mouse to be 6.2 Gy. At the time of tumor implantation, mice were anesthetized by isoflurane inhalation or by IP injection of a ketamine/xylazine cocktail. Using vernier calipers, tumor size was measured; and tumor volume calculated on day 0 of study, at a minimum of 2-3 times/week and immediately prior to scheduled sacrifice. The tumor volume was estimated using the formula for a prolate ellipsoid: V=[(length)×(width)^2]/2 or hemi-ellipsoid: V=π/6×(length)×(width)×(height). When tumors reached a predetermined tumor volume animals were divided into treatment groups followed by test/control article dosing. Maximum allowable tumor burden prior to sacrifice is a mean surface diameter of 20 mm or not more than 10% of the animal's body weight as described in the NIH tumor burden guidelines for mice.
In this example, the ionophore was formulated in 5% mannitol.

[2] = tested on: DU145 prostate cancer cells; settings: DU145 xenograft, intravenous 60 μmol/kg q.d.×4, formulated in 30% THPB-P beta-cyclodextrin vehicle, FIG. 31
Method: as §1

[3] = tested on: A549 human lung cancer cells; settings: A549 xenograft, FIG. 28
Method: as §1

[4] = mouse, in vivo
[5] = zinc binding motif, well known; cited from earlier work
cancer cells [6] = test: intracellular free zinc in cancer cells; format: cell-based; settings: previously found
Method: The concentration of intracellular free zinc is assessed using the ion-specific fluorescent probe, FluoZin-3-AM-(FluoZin-3, Molecular Probes, Inc.). […] Following treatment, cells are isolated by centrifugation. Cell pellets are washed and re-suspended in a solution of 0.5% BSA in PBS. An aliquot of 10^6 cells (200 μL) is removed, centrifuged, and treated with FluoZin-3 reaction buffer An aliquot of the cell suspension is supplemented with 2 μg/mL propidium iodide (Sigma Biochemical), incubated for 5 minutes, and subjected to two-parameter flow cytometric analysis. See, e.g., FIG. 27.

[7] = tested on: cell lines including A549 lung, PC3 prostate, K1 and E89 Chinese hamster ovary (CHO), Ramos, DHL-4, and HF-1 B-cell lymphoma; test: standard tetrazolide reduction proliferation assay; format: cell-based; settings: ZnHPT formed in situ from HPT and zinc
Method: The proliferation of exponential phase cultures of A549 and PC3 cells is assessed by formazan reduction. In brief, A549 (2000 cells/well) or PC3 (4000 cells/well) cells are seeded on 96-well microtiter plates and allowed to adhere overnight. Stock solutions of ZnHPT or PEGZnHPT in medium are serial diluted in a ratio of 1:4 down the plate. Stock solutions of MGd or ZnOAc2 or 5% mannitol in ACS grade water are added and plates are incubated at 37° C. under a 5% CO2/95% air atmosphere. After 24 hours, medium is replaced with fresh medium. After 2 additional days, medium is exchanged for fresh medium (150 μL/well) supplemented with the tetrazolium dye, 3-(4,5-dimethylthiazol-2-yl)-2,5-diphenyltetrazolium bromide (MTT, Sigma Chemical, 0.5 mg/mL). Plates are incubated at 37° C. and viable cells measured. […] Alternatively cellular reduction within plateau phase cultures is measured after 24 hours of treatment as a measure of the cytotoxicity due to treatment.

thioredoxin reductase = settings: cells co-treated with MGd and ZnHPT, previously found
Method: Thioredoxin reductase activity is assessed by measuring the rate of lipoate reduction. In brief, A549 or PC3 cells (10,000 cells/well) are plated on 96-well plates and allowed to adhere overnight and grow two additional days until confluent. Cells are treated with ZnHPT, PEGZnHPT, MGd, zinc, or 5% mannitol as above for 4 hours. Medium is removed, cells are washed with Hanks Balanced Salt Solution (HBSS), and a solution of 5 mM lipoic acid and 1 mM 5,5′-dithiobis(2-nitrobenzoic acid) in HBSS (100 μL/well) is added. Plates are incubated at ambient temperature in the dark. At chosen time intervals, plate absorbance is measured at 405-650 nm. Plate absorbances are normalized to wells containing neither exogenous zinc nor texaphyrin complex to allow plate-to-plate comparison.

[8] = cited from earlier work
cancer cells [9] = settings: reported; cited from earlier work

2-thiol-5-((2-(2-methoxyethoxy)ethoxy)methyl)pyridine-N-oxide, Zn complex [5-PEG-[2]-ZnHPT]
anticancer activity (tumor regrowth) as compared to control vehicle ([1]; intravenous 100 μmol/kg q.d.×2 and q.d.×4, formulated in 5% mannitol, FIG. 30): significant anticancer activity

2-thiol-5-((2-methoxyethoxy)methyl)pyridine-N-oxide, Zn complex [5-PEG-[1]-ZnHPT]
anticancer activity (tumor regrowth) as compared to control vehicle [2]: significant anticancer activity

COCCOCCOCCOCc1ccc([S-])[n+]([O-])c1.COCCOCCOCCOCc1ccc([S-])[n+]([O-])c1.[Zn+2] [5-PEG-[3]-ZnHPT, 2-thiol-5-((2-(2-(2-methoxyethoxy)ethoxy)ethoxy)methyl)pyridine-N-oxide, Zn complex]
anticancer activity (tumor regrowth) ([3]; in combination with MGd): significant anticancer activity | anticancer activity (tumor regrowth) ([3]; without MGd): significant anticancer activity | anticancer activity (tumor regrowth) ([1]; FIG. 29): significant anticancer activity | maximum tested without evidence of toxicity [4]: ≥ 120 µmol/kg

On1ccccc1=S [HPT]
logKβ2 [5]: 5.4

CC(=O)[O-].CC(=O)[O-].CCc1c(CC)c2cc3nc(cnc4cc(OCCOCCOCCOC)c(OCCOCCOCCOC)cc4ncc4nc(cc1[n-]2)C(CCCO)=C4C)C(C)=C3CCCO.O.[Gd+3] [MGd, motexafin gadolinium]
intracellular free zinc (cancer cells [6]): increased intracellular free zinc

On1ccccc1=S [ZnHPT, 1-hydroxypyridine-2-thione]
inhibition of proliferation [7]: inhibits proliferation in a dose dependent manner | inhibition of thioredoxin reductase (thioredoxin reductase): synergistic inhibition | bioavailability ([8]; oral, typically formulated as a suspension in vegetable oil): poorly bioavailable | toxicity on oral administration ([8]; orally administered to laboratory animals): not found to be particularly toxic | growth of cancer cells in culture (cancer cells [9]): inhibit the growth of cancer cells in culture

Zinquin
logKβ2 [5]: ca. 18

Source: patent publication US7838536B2, “Water-soluble zinc ionophores, zinc chelators, and/or zinc complexes and use for treating cancer” (priority 2006, dated 2010)
